Legend:
[1] = target: T1, Peroxisome proliferator-activated receptor gamma (Homo sapiens, UniProt P37231); type: functional
T1 sequence (P37231 whole entry): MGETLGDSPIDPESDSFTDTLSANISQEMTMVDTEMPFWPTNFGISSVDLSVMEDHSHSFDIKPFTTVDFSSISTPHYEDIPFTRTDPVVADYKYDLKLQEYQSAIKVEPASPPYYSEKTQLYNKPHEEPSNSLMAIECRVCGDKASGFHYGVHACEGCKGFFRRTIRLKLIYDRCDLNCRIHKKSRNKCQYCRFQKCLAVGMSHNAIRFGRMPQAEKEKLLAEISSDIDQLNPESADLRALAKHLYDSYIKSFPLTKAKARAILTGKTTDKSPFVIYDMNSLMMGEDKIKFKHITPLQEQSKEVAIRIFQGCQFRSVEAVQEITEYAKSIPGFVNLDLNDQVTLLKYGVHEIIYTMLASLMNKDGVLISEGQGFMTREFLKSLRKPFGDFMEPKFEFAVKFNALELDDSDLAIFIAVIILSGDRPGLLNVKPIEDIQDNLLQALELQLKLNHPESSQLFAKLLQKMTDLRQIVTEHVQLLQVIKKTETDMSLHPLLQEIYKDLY

[2] = target: 5-hydroxytryptamine receptor 2A (Homo sapiens, UniProt P28223); type: functional, cell-based
[3] = target: T2, Glucocorticoid receptor (Homo sapiens, UniProt P04150); type: functional
T2 sequence (P04150 whole entry): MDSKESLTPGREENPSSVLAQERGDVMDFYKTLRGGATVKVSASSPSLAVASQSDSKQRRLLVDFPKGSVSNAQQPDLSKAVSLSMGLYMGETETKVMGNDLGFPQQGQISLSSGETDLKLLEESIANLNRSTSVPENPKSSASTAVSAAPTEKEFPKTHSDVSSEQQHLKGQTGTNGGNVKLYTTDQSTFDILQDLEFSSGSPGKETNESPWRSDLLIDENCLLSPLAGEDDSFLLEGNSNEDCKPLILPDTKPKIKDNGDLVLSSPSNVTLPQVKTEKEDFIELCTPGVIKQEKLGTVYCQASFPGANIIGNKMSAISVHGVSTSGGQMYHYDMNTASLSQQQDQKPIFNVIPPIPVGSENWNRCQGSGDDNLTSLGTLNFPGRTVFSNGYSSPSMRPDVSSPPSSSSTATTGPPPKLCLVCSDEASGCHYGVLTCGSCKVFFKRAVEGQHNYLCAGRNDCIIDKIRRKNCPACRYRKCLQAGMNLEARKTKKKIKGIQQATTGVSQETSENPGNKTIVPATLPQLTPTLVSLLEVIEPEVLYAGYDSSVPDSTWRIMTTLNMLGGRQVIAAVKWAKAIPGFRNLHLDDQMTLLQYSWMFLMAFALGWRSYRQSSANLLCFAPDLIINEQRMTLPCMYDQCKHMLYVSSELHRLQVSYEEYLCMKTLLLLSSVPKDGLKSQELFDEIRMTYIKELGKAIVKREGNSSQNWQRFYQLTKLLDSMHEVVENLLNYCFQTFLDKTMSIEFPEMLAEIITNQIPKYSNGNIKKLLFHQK

[4] = target: Mu-type opioid receptor (Homo sapiens, UniProt P35372); experiment: biochemical; type: functional
[5] = target: T3, 5-hydroxytryptamine receptor 1A (Homo sapiens, UniProt P08908)
T3 sequence (P08908 whole entry): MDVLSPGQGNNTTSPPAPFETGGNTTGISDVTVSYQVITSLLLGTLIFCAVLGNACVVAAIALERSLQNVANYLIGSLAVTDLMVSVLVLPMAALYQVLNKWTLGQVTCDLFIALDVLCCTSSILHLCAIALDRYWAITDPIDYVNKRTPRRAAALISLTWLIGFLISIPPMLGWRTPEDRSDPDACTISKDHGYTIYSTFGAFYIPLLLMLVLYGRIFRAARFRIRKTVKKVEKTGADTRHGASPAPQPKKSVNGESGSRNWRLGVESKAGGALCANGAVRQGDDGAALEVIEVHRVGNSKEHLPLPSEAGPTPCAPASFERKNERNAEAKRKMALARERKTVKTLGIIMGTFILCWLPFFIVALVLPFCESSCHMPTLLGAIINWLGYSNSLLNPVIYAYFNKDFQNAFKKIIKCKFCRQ

[6] = target: D(1A) dopamine receptor (Homo sapiens, UniProt P21728)
[7] = target: T4, B1 bradykinin receptor (Homo sapiens, UniProt P46663)
T4 sequence (P46663 whole entry): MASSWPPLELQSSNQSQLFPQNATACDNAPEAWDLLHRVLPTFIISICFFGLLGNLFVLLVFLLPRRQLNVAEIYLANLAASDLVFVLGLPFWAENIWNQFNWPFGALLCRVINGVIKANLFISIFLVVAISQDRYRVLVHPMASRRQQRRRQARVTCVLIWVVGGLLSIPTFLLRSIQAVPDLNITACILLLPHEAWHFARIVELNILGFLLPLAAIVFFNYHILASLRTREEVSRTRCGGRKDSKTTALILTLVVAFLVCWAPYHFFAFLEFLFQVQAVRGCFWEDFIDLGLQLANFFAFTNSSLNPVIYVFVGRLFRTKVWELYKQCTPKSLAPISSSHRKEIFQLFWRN

[8] = target: Estrogen receptor beta (Homo sapiens, UniProt Q92731)
Also: assay procedure not described here.

Mu-type opioid receptor, sequence (P35372 whole entry): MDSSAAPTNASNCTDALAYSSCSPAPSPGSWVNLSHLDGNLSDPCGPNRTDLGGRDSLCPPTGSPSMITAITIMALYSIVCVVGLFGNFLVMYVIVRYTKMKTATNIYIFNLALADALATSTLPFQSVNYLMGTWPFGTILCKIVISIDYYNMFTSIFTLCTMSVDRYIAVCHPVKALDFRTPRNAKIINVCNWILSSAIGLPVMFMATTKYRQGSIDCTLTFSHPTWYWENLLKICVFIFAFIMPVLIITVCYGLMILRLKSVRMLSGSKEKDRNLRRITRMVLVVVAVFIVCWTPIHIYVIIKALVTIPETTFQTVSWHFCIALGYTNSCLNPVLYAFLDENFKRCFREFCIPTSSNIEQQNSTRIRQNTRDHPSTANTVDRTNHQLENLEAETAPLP
5-hydroxytryptamine receptor 2A, sequence (P28223 whole entry): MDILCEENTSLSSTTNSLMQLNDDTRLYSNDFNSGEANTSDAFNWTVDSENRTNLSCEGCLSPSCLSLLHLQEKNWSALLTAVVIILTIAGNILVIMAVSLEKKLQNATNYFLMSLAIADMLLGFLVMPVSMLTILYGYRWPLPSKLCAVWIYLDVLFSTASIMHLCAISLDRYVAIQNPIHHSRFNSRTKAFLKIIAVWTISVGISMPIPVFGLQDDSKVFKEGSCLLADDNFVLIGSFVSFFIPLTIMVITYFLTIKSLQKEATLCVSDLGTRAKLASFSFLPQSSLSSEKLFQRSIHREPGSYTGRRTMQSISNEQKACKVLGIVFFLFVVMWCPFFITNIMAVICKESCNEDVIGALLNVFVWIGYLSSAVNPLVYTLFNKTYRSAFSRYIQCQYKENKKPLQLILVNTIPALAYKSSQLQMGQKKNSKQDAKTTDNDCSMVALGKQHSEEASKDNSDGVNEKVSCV
D(1A) dopamine receptor, sequence (P21728 whole entry): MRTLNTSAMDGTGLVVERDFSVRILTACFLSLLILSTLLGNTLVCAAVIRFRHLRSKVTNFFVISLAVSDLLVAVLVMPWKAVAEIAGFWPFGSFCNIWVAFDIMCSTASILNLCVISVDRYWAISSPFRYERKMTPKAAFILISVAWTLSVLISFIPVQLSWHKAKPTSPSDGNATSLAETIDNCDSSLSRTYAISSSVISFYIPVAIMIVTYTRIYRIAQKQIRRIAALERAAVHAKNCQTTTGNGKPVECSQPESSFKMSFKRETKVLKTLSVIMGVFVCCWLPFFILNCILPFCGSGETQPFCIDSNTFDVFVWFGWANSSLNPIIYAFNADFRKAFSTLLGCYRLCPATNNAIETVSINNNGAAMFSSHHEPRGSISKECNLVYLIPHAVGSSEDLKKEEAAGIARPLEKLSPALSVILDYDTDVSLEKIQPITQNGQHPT
Estrogen receptor beta, sequence (Q92731 whole entry): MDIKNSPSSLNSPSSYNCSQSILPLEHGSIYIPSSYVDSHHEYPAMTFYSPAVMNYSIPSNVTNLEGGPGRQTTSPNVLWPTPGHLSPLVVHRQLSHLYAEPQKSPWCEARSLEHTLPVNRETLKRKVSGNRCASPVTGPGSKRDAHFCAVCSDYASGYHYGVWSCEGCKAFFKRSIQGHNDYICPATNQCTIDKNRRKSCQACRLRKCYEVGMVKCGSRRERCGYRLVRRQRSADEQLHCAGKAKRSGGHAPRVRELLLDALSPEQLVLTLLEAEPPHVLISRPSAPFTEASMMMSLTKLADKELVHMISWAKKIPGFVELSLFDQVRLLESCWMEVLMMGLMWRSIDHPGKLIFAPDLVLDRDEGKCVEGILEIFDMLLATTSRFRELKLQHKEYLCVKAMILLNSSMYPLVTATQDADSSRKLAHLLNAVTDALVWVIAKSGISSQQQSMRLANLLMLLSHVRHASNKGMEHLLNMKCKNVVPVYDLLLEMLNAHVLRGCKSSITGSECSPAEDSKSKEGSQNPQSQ

SMILES: CC(=N)N1CC[C@H](SC2=C(C(=O)O)N3C(=O)[C@H]([C@@H](C)O)[C@H]3C2)C1
- AC50 [1]: > 300 µM
- AC50 [2]: > 300 µM
- AC50 [3]: > 300 µM

SMILES: CC(/C=C1\SC(=S)N(CC(=O)O)C1=O)=C\c1ccccc1
- AC50 [4]: > 30 µM

SMILES: O=C1CN2Cc3c(ccc(Cl)c3Cl)N=C2N1 [ANAGRELIDE]
- AC50 [5]: > 10 µM
- AC50 [2]: > 30 µM

SMILES: CNCC[C@@H](Oc1ccccc1C)c1ccccc1 [ATOMOXETINE]
- AC50 [4]: 18 µM

SMILES: CCc1oc2ccccc2c1C(=O)c1cc(Br)c(O)c(Br)c1 [BENZBROMARONE]
- AC50 [5]: > 10 µM
- AC50 [3]: > 30 µM

SMILES: CO/N=C(\C(=O)N[C@@H]1C(=O)N2C(C(=O)O)=C(COC(N)=O)CS[C@H]12)c1ccco1 [CEFUROXIME]
- AC50 [4]: > 30 µM
- AC50 [1]: > 30 µM
- AC50 [2]: > 30 µM

SMILES: [H]/N=C(\N/C(=N/[H])NCCCCCCNC(=N)NC(=N)Nc1ccc(Cl)cc1)Nc1ccc(Cl)cc1 [CHLORHEXIDINE]
- AC50 [4]: > 10 µM
- AC50 [2]: 1.83 µM

SMILES: Clc1cccc(Cl)c1N=C1NCCN1 [CLONIDINE]
- AC50 [6]: > 10 µM
- AC50 [5]: > 10 µM
- AC50 [7]: > 30 µM

SMILES: CN1C[C@H](C(=O)N[C@]2(C)O[C@@]3(O)[C@@H]4CCCN4C(=O)[C@H](Cc4ccccc4)N3C2=O)C[C@@H]2c3cccc4[nH]cc(c34)C[C@H]21 [DIHYDROERGOTAMINE]
- AC50 [6]: 5.47 µM
- AC50 [8]: > 30 µM
- AC50 [5]: 0.0126 µM
- AC50 [7]: > 30 µM

SMILES: C#Cc1cccc(Nc2ncnc3cc(OCCOC)c(OCCOC)cc23)c1 [ERLOTINIB]
- AC50 [1]: > 30 µM
- AC50 [3]: > 30 µM

SMILES: CC1(C)O[C@@H]2C[C@H]3[C@@H]4C[C@H](F)C5=CC(=O)C=C[C@]5(C)[C@H]4[C@@H](O)C[C@]3(C)[C@]2(C(=O)CO)O1 [FLUNISOLIDE]
- AC50 [1]: > 30 µM
- AC50 [3]: > 30 µM

SMILES: CCC(=O)O[C@@H](O[P@](=O)(CCCCc1ccccc1)CC(=O)N1C[C@H](C2CCCCC2)C[C@H]1C(=O)O)C(C)C [FOSINOPRIL]
- AC50 [4]: > 30 µM
- AC50 [2]: > 30 µM

SMILES: Nc1nc(O)c2ncn(COC(CO)CO)c2n1 [GANCICLOVIR]
- AC50 [4]: > 30 µM

SMILES: CC(=O)/N=c1/sc(S(N)(=O)=O)nn1C [METHAZOLAMIDE]
- AC50 [4]: > 30 µM
- AC50 [2]: > 10 µM

SMILES: CC[C@@H](CO)NC(=O)[C@@H]1C=C2c3cccc4[nH]cc(c34)C[C@H]2N(C)C1 [METHYLERGONOVINE]
- AC50 [4]: > 30 µM

SMILES: CC(=O)Oc1ccccc1C(=O)Nc1ncc([N+](=O)[O-])s1 [NITAZOXANIDE]
- AC50 [4]: > 30 µM
- AC50 [2]: 15 µM

SMILES: COc1ccnc(C[S+]([O-])c2nc3ccc(OC(F)F)cc3[nH]2)c1OC (centres undefined) [PANTOPRAZOLE]
- AC50 [6]: > 10 µM
- AC50 [8]: > 30 µM
- AC50 [5]: > 10 µM
- AC50 [7]: > 30 µM

SMILES: COc1ccc(Cc2nccc3cc(OC)c(OC)cc23)cc1OC [PAPAVERINE]
- AC50 [4]: > 30 µM

SMILES: CNC(=O)c1cc(Oc2ccc(NC(=O)Nc3ccc(Cl)c(C(F)(F)F)c3)c(F)c2)ccn1 [REGORAFENIB]
- AC50 [2]: > 30 µM
- AC50 [3]: 17 µM

SMILES: CCOc1cc(CC(=O)N[C@@H](CC(C)C)c2ccccc2N2CCCCC2)ccc1C(=O)O [REPAGLINIDE]
- AC50 [1]: > 30 µM
- AC50 [2]: 9.4 µM
- AC50 [3]: > 30 µM

SMILES: CCCN(CCc1cccs1)[C@H]1CCc2c(O)cccc2C1 [ROTIGOTINE]
- AC50 [1]: > 30 µM
- AC50 [3]: > 30 µM

SMILES: CC[C@H]1OC(=O)[C@H](C)[C@@H](O[C@H]2C[C@@](C)(OC)[C@@H](O)[C@H](C)O2)[C@H](C)[C@@H](O[C@@H]2O[C@H](C)C[C@H](N(C)C)[C@H]2O)[C@](C)(O)C[C@@H](C)/C(=N\OCOCCOC)[C@H](C)[C@@H](O)[C@]1(C)O [ROXITHROMYCIN]
- AC50 [1]: > 30 µM
- AC50 [3]: > 30 µM

SMILES: Cn1c(=O)c2[nH]cnc2n(C)c1=O [THEOPHYLLINE]
- AC50 [6]: > 10 µM
- AC50 [5]: > 10 µM
- AC50 [7]: > 30 µM

SMILES: CN1CCN(CCCN2c3ccccc3Sc3ccc(S(=O)(=O)N(C)C)cc32)CC1 [THIOPROPERAZINE]
- AC50 [4]: > 30 µM
- AC50 [2]: 5.8 µM

SMILES: Cc1cc(CC(=O)O)n(C)c1C(=O)c1ccc(Cl)cc1 [ZOMEPIRAC]
- AC50 [4]: > 30 µM
- AC50 [2]: > 30 µM

Reference: ChEMBL document CHEMBL5291721, “A preclinical secondary pharmacology resource illuminates target-adverse drug reaction associations of marketed drugs” (Nat Commun, 2023)
